A melting point compilation (Tetko et al.; mined from patent text by program, amines drawn as free bases though some values may be those of a salt)

First: COC(=O)C(Oc1ccc(C2CCCCC2)cc1)c1ccc(Oc2ccc(Cl)cc2)cc1 (stereo not drawn)
Second: CC(C(=O)O)c1ccc(Nc2ccc(Cl)cc2)cc1 (stereo not drawn)
The melting point of the first is higher: 122 to 124 °C for the first, 106 to 109 °C for the second.

Compared with `N#CCCCCCC(=NOCCNC(c1ccccc1)(c1ccccc1)c1ccccc1)c1ccc(Cl)c(Cl)c1`, `O=C(O)COc1ccc(OCCC(c2ccccc2)(c2ccccc2)c2ccccc2)cc1` is lower in melting point: 131 to 132 °C for the first, 66 to 68 °C for the second.

First: O=C(O)c1ccc(-c2nc(-c3ccc(Oc4ccccc4)cc3)no2)cc1
Second: CCCC(=O)Nc1n[nH]c2cc(-c3ccc(OCc4ccccc4)cc3)c(-c3ccc(OCc4ccccc4)cc3)cc12
The melting point of the first is higher: 278 to 279 °C for the first, 140 °C for the second.

First: CC(C)(C)OC(=O)N1CCC(c2ccc3nc(-c4ccc(C(F)(F)F)cc4)oc3c2)CC1
Second: O=c1cc(-c2ccc(C(F)(F)F)cc2)cc(C(F)(F)F)o1
The melting point of the first is higher: 174 to 179 °C for the first, 52 °C for the second.

First: CCC(=NO)c1ccc(Cl)cc1
Second: CCCCCCCc1ccc(C(=O)c2ccc(C(=O)O)cc2)cc1
The melting point of the first is lower: 56 to 57.5 °C for the first, 181 °C for the second.

First: CCCCCCc1c(C(C)C)nc(C(C)C)c(CO)c1-c1ccc(F)cc1
Second: Cc1cc2c(c(C)c1N)C(c1ccc(C(C)C)cc1)C(C)(C)O2 (stereo not drawn)
The melting point of the first is lower: 93 to 95 °C for the first, 98 to 100 °C for the second.

First: CC(C)(OCc1cc2cc(Cl)ccc2n1S(=O)(=O)c1ccc2c(c1)OCCO2)C(=O)O
Second: CC(C)(C)OC(=O)N1CCN(c2ccc(NC(=O)Nc3cc(Cl)ccc3NS(C)(=O)=O)cc2)CC1
The melting point of the first is higher: 156 to 158 °C for the first, 127 °C for the second.

First: CCOc1cc2c(cc1OC)C(c1ccc(C(=O)N(C(C)C)[C@@H](C)CO)cc1)=N[C@@H]1CCN(C)C[C@H]21
Second: CCN(Cc1nc2cc(OC)c(OC)cc2c(-c2ccc(OC)c(OC)c2)c1C(C)=O)C(C)(C)C
The melting point of the first is lower: 104 to 112 °C for the first, 156 to 157 °C for the second.

Compared with `CCC1(CCOS(C)(=O)=O)C(=O)N2CC=CC(C(=O)OC)N2C1=O` (stereo not drawn), `CCOC(=O)C1CC2=C(CO1)C(=O)c1cc3ccccc3c(OC(C)=O)c1C2=O` (stereo not drawn) is higher in melting point: 94 to 96 °C for the first, 196 to 198 °C for the second.

First: Cc1cnc(N2CCN(CC[C@H]3CC[C@H](NC(=O)C4CCOCC4)CC3)CC2)c2c1OCC2
Second: CN1CCN(c2cccc3c2C[C@H](NC(=O)c2ccc(N4CCCCC4)cc2)CC3)CC1
The melting point of the first is higher: 224 °C for the first, 196 to 198 °C for the second.

First: NCC1Cc2c(C(F)(F)F)ccc(Cl)c2O1 (stereo not drawn)
Second: O=C1CC(C(=O)C(F)(F)F)Cc2ccccc21 (stereo not drawn)
The melting point of the first is higher: > 250 °C for the first, 48 to 49 °C for the second.

First: O=C(CCCCO)NCC1Cc2ccccc2Cc2ccccc21 (stereo not drawn)
Second: COc1ccccc1N1CCN(CC(O)COc2ccccc2CC(N)=O)CC1 (stereo not drawn)
The melting point of the first is lower: 96 to 98 °C for the first, 120 to 122 °C for the second.

First: CSc1ccc(CC(=O)NC(NC(=NC#N)Nc2cccc3ncccc23)C(C)(C)C)cc1 (stereo not drawn)
Second: CC(C)(C)c1cc(CCc2ccccc2NC(=O)NC2CCN(Cc3ccc(C#N)cc3)CC2)cc(C(C)(C)C)c1O
The melting point of the first is lower: 188 to 189 °C for the first, 197 to 198 °C for the second.

First: c1ccc(CP(Cc2ccccc2)Cc2ccccc2-c2ccccc2CP(Cc2ccccc2)Cc2ccccc2)cc1
Second: O=C(N[C@H](Cc1ccccc1)C(=O)O)OCc1ccc2oc(-c3ccccc3)cc2c1
The melting point of the first is lower: 163 to 167 °C for the first, 173 to 174 °C for the second.

First: COC(=O)C(C)(SC)c1ccc(C(OC)(OC)c2ccccc2)s1 (stereo not drawn)
Second: CC(C)(C)OC(=O)NCc1ccccc1
The melting point of the first is higher: 61.5 to 62.5 °C for the first, 55.5 to 56.5 °C for the second.

Compared with `O=c1[nH]c2cc(Cl)cc(Cl)c2c(=O)n1Cc1ccc([N+](=O)[O-])cc1`, `Clc1ccc(-c2nc3n(c2Br)CCCC3)c(Cl)c1` is lower in melting point: 227 to 230 °C for the first, 112 to 113 °C for the second.

First: CC(=O)c1cc(NC(=O)OC(C)(C)C)ccc1O
Second: COC(=O)C(C)(C)Cc1c(SC(C)(C)C)c2ccc(OC)cc2n1C
The melting point of the first is higher: 107 to 108 °C for the first, 97 to 98 °C for the second.

First: COc1cc(SCCCc2ccc(-c3ccc(CCCSc4ccc(OCC(=O)O)c(OC)c4)cc3)cc2)ccc1OCC(=O)O
Second: COc1ccc(CN(C)CCSc2ccc(NC(=O)c3cccc4c(=O)c5ccccc5[nH]c34)cc2)cc1OC
The melting point of the first is higher: 178 to 180 °C for the first, 113 °C for the second.

First: CCOC(=O)c1c(C)[nH]c2ccc(OC[C@@H](O)CN=[N+]=[N-])cc12
Second: CCOC(=O)Cc1c(C)n(Cc2ccc3ccccc3c2)c2ccc(OCc3csc(-c4ccccc4)n3)cc12
The melting point of the first is lower: 75 to 77 °C for the first, 118 to 119 °C for the second.

First: Cc1n[nH]c2c1C(=O)CC(c1ccccc1O)C2 (stereo not drawn)
Second: O=C1CN2Cc3cc(C(=O)c4ccccc4)ccc3N=C2N1
The melting point of the first is lower: 252 to 255 °C for the first, > 300 °C for the second.

First: COCC(C)Nc1cc(-c2ccnc(Nc3cccc(Cl)c3)n2)ccn1 (stereo not drawn)
Second: COC(=O)c1ccnc(OCc2nc(-c3ccccc3)oc2C)c1
The melting point of the first is higher: 143 to 144 °C for the first, 106 to 107 °C for the second.

First: CCCC(C)(C)NC(=O)NC1=CC(=O)OC1
Second: Cc1ccc(S(C)(=O)=O)c(C)c1Cl
The melting point of the first is higher: 130 to 132 °C for the first, 116 to 119 °C for the second.

Compared with `Cc1ccc(CCCNCC(O)c2cc3ccccc3o2)cc1` (stereo not drawn), `Cc1ccc(S(=O)(=O)ON=C(C#N)c2ccccc2)cc1` is higher in melting point: 118 to 119 °C for the first, 131 to 132 °C for the second.

First: CC1(NC(=O)C(F)(F)F)CN(c2c(F)cc3c(=O)c(C(=O)O)cn(CCF)c3c2F)C1
Second: COc1ccc(C)cc1NC(=O)Nc1ccc(C2=CCN(C(=O)Nc3ccc(OCCO)cc3C(F)(F)F)CC2)cc1
The melting point of the first is higher: 205 to 215 °C for the first, 150 to 153 °C for the second.

First: CCOCc1nc2c(N)nc3ccccc3c2n1Cc1cc(-c2ccccc2)on1
Second: O=C(O)Cc1nn(-c2nc3ccccc3s2)c(=O)c2ccccc12
The melting point of the first is higher: 221 to 223 °C for the first, 205 °C for the second.

Compared with `O=C1CC2CCSc3sccc3C2=NN1c1ccc(Cl)cc1` (stereo not drawn), `Cc1ccc2c(c1)C=Cc1cc(C)ccc1C2c1cn(-c2ccnc(N3C[C@H](O)C[C@H]3C(=O)O)n2)c(=O)[nH]c1=O` is higher in melting point: 134 to 135 °C for the first, 208 to 210 °C for the second.

First: COc1cccc2c(CCCCN(C3CCC3)C3COc4c(F)ccc(C(N)=O)c4C3)coc12 (stereo not drawn)
Second: CCN(CC)CCOC(=O)c1cc2cc(Br)ccc2nn1
The melting point of the first is higher: 122 to 127 °C for the first, 90 to 93 °C for the second.

First: CCCCCCCCCCN=C1SC(=CC(=O)O)C(=O)N1CCCCCCCCCC
Second: CCCCn1c(=O)n(CCCCC(C)=O)c(=O)c2c1ncn2CC(C)=O
The melting point of the first is lower: 68 to 69 °C for the first, 87 °C for the second.

First: CCCCc1nc2cccc(C(=O)OCc3ccncc3)c2n1Cc1ccc(-c2ccccc2-c2nnn[nH]2)cc1
Second: Cc1cc(C)c(OC(=O)NC2CC2c2ccc(-c3ncn(-c4ccc(OC(F)(F)F)cc4)n3)cc2)c(C)c1 (stereo not drawn)
The melting point of the first is lower: 179 to 180 °C for the first, 199 to 202 °C for the second.

Compared with `O=C(NCc1ccccc1)[C@@H]1CCCCN1`, `CN(C(=O)CBr)n1cccc1C(=O)c1ccccc1` is lower in melting point: 103 to 104 °C for the first, 76 to 78 °C for the second.

First: CCCc1cc(CCCOc2c(C)cc(-c3nc(C)no3)cc2C)on1
Second: c1cncc(-c2nsnc2SCCCc2cccs2)c1
The melting point of the first is lower: 35 to 37 °C for the first, 98 to 100 °C for the second.

`C#CCNC(=O)C(C#N)C(=O)C1CC1` (stereo not drawn) and `COC(COC(C)=O)C1=CCC2C3CCC4=CC(=O)CCC4(C)C3CCC12C` (stereo not drawn) cannot be ordered by melting point: 128 to 129 °C for the first, 115 to 157 °C for the second.

First: COc1cc(-c2c(Cl)c(CN3C(=O)CCC3=O)nc3sc4c(c23)CCN(C(C)=O)C4)ccc1O
Second: CC(=O)N1CCN(C)C1C(c1ccccc1)c1ccccc1 (stereo not drawn)
The melting point of the first is higher: 273 to 275 °C for the first, 164 to 165 °C for the second.

First: CSc1ccc(NC(C#N)c2ccc(OC(F)F)cc2)cc1 (stereo not drawn)
Second: CN1CCNS(=O)(=O)c2cc(Oc3ccccc3)ccc21
The melting point of the first is lower: 98 to 99 °C for the first, 128 to 131 °C for the second.
